Data published in US20090036422A1 (priority 2007, published 2009).
Where a name gives a salt, the structure may show the parent alone.

Each molecule was assayed against T1, human orexin-2 (hOX2) receptor (Homo sapiens, UniProt O43614) (assay: Intracellular Ca2+ mobilization assay (FLIPR), CHO(dHFr-) cells expressing hOX2, orexin-A at EC80 as agonist). Conditions: Kb=IC50/(1+[A]/EC50); CHO(dHFr-)-OX2R cells, antagonist applied 25 min before orexin-A EC80.
T1 construct: expressed in transfected cells
T1 sequence (O43614 1-444): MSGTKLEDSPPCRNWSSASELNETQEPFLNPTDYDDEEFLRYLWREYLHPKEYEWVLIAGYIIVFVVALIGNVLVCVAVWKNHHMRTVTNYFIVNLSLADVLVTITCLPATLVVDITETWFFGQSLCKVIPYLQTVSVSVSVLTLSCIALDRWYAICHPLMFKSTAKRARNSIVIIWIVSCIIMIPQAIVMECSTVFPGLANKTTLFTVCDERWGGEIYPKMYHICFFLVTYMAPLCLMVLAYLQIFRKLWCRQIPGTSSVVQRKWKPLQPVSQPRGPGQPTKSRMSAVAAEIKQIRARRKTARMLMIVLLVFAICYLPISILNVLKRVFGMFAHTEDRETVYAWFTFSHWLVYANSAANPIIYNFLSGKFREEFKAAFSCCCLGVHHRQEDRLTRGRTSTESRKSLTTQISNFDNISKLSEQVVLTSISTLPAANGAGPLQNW
Type: cell-based
In short: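 Fluo-4-loaded CHO(dHFr−) cells stably expressing hOX2 were preincubated 25 min at 37 °C with antagonist (11 concentrations, 0.0001–10 μM), then challenged with orexin-A at its daily-determined EC80. Peak fluorescence over basal read by FLIPR; IC50 from Hill fit, Kb via Kb=IC50/(1+[A]/EC50).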

Row | Compound | Kb [µM]
1 | Cc1ccc(N(CCc2ccc(C)c(F)c2)C(=O)[C@@H](N)c2ccccc2)cc1C [Example 190, (S)-2-Amino-N-(3,4-dimethyl-phenyl)-N-[2-(3-fluoro-4-methyl-phenyl)-ethyl]-2-phenyl-acetamide hydrochloride] | 0.0091
2 | Cc1ccc(N(CCc2cc(F)cc(F)c2)C(=O)[C@@H](N)c2ccccc2)cc1C [Example 208, (S)-2-Amino-N-[2-(3,5-difluoro-phenyl)-ethyl]-N-(3,4-dimethyl-phenyl)-2-phenyl-acetamide hydrochloride] | 0.0231
3 | Cc1ccc(N(CCc2cccc(F)c2F)C(=O)[C@@H](N)c2ccccc2)cc1C [Example 191, (S)-2-Amino-N-[2-(2,3-difluoro-phenyl)-ethyl]-N-(3,4-dimethyl-phenyl)-2-phenyl-acetamide hydrochloride] | 0.0215
4 | Cc1ccc(CCN(C(=O)[C@@H](NC(=O)[C@@H](N)c2ccccc2)c2ccccc2)c2ccc(C)c(C)c2)cc1 [Example 249, (S)-2-((S)-2-Amino-2-phenyl-acetylamino)-N-(3,4-dimethyl-phenyl)-2-phenyl-N-(2-p-tolyl-ethyl)-acetamide] | 0.082
5 | Cc1ccc(N(CCc2cccc(C(F)(F)F)c2F)C(=O)[C@@H](N)c2ccccc2)cc1C [Example 195, (S)-2-Amino-N-(3,4-dimethyl-phenyl)-N-[2-(2-fluoro-3-trifluoromethyl-phenyl)-ethyl]-2-phenyl-acetamide hydrochloride] | 0.0176
6 | Cc1ccc(N(CCc2ccc(Cl)c(F)c2)C(=O)[C@@H](N)c2ccccc2)cc1C [Example 200, (S)-2-Amino-N-[2-(4-chloro-3-fluoro-phenyl)-ethyl]-N-(3,4-dimethyl-phenyl)-2-phenyl-acetamide hydrochloride] | 0.0143
7 | Cc1ccc(CCN(C(=O)C(NC(C)(C)CO)c2ccccc2)c2ccc(C)c(C)c2)cc1 (centres unmarked) [Example 132, N-(3,4-Dimethyl-phenyl)-2-(2-hydroxy-1,1-dimethyl-ethylamino)-2-phenyl-N-(2-p-tolyl-ethyl)-acetamide] | 0.0642
8 | Cc1ccc(N(CCc2cc(F)cc(C(F)(F)F)c2)C(=O)[C@@H](N)c2ccccc2)cc1C [Example 201, (S)-2-Amino-N-(3,4-dimethyl-phenyl)-N-[2-(3-fluoro-5-trifluoromethyl-phenyl)-ethyl]-2-phenyl-acetamide hydrochloride] | 0.247
9 | COc1ccc(N(CCc2ccc(C(F)(F)F)cc2)C(=O)C(N)c2ccc(F)cc2)cc1OC (centres unmarked) [Example 61, 2-Amino-N-(3,4-dimethoxy-phenyl)-2-(4-fluoro-phenyl)-N-[2-(4-trifluoromethyl-phenyl)-ethyl]-acetamide] | 0.0025
10 | Cc1ccc(CCN(C(=O)C(NCC(C)O)c2ccccc2)c2ccc(C)c(C)c2)cc1 (centres unmarked) [Example 121, N-(3,4-Dimethyl-phenyl)-2-(2-hydroxy-propylamino)-2-phenyl-N-(2-p-tolyl-ethyl)-acetamide] | 0.0109
11 | COc1ccc(N(CCc2ccc(C(F)(F)F)cc2)C(=O)C(N)c2cccc(Cl)c2)cc1OC (centres unmarked) [Example 63, 2-Amino-2-(3-chloro-phenyl)-N-(3,4-dimethoxy-phenyl)-N-[2-(4-trifluoromethyl-phenyl)-ethyl]-acetamide] | 0.0664
12 | Cc1ccc(N(CCc2ccccc2)C(=O)[C@@H](N)c2ccccc2)cc1C [Example 199, (S)-2-Amino-N-(3,4-dimethyl-phenyl)-N-phenethyl-2-phenyl-acetamide hydrochloride] | 0.0489
13 | Cc1ccc(CCN(C(=O)[C@@H](N)c2ccc(F)cc2)c2ccc(C)c(C)c2)cc1 [Example 144, (S)-2-Amino-N-(3,4-dimethyl-phenyl)-2-(4-fluoro-phenyl)-N-(2-p-tolyl-ethyl)-acetamide] | 0.0174
14 | C=COCCNC(C(=O)N(CCc1ccc(C)cc1)c1ccc(C)c(C)c1)c1ccccc1 (centres unmarked) [Example 135, N-(3,4-Dimethyl-phenyl)-2-phenyl-N-(2-p-tolyl-ethyl)-2-(2-vinyloxy-ethylamino)-acetamide] | 0.0379

Second part, the molecule after the results:

Row | Kb [µM] | Compound
15 | 0.0217 | N[C@H](C(=O)N(CCc1ccc(C(F)(F)F)cc1)c1ccc(OC(F)F)cc1)c1ccccc1 [Example 148, (S)-2-Amino-N-(4-difluoromethoxy-phenyl)-2-phenyl-N-[2-(4-trifluoromethyl-phenyl)-ethyl]-acetamide]
16 | 0.0523 | COc1ccc(N(CCc2ccc(C(F)(F)F)cc2)C(=O)C(N)c2ccccc2)cc1 (centres unmarked) [Example 75, 2-Amino-N-(4-methoxy-phenyl)-2-phenyl-N-[2-(4-trifluoromethyl-phenyl)-ethyl]-acetamide]
17 | 0.0542 | Cc1ccc(N(CCc2ccc(C(F)(F)F)cc2)C(=O)[C@@H](O)c2ccccc2)cc1C [Example 159, (S)—N-(3,4-Dimethyl-phenyl)-2-hydroxy-2-phenyl-N-[2-(4-trifluoromethyl-phenyl)-ethyl]-acetamide]
18 | 0.0275 | NC(C(=O)N(CCc1ccc(C(F)(F)F)cc1)c1ccc2c(c1)OCO2)c1ccccc1 (centres unmarked) [Example 58, 2-Amino-N-benzo[1,3]dioxol-5-yl-2-phenyl-N-[2-(4-trifluoromethyl-phenyl)-ethyl]-acetamide]
19 | 0.0335 | COc1ccc(Cl)c(N(CCc2ccc(C(F)(F)F)cc2)C(=O)C(N)c2ccccc2)c1 (centres unmarked) [Example 110, 2-Amino-N-(2-chloro-5-methoxy-phenyl)-2-phenyl-N-[2-(4-trifluoromethyl-phenyl)-ethyl]-acetamide]
20 | 0.0156 | Cc1ccc(N(CCc2ccc(C(F)(F)F)c(F)c2)C(=O)[C@@H](N)c2ccccc2)cc1C [Example 186, (S)-2-Amino-N-(3,4-dimethyl-phenyl)-N-[2-(3-fluoro-4-trifluoromethyl-phenyl)-ethyl]-2-phenyl-acetamide hydrochloride]
21 | 0.0888 | Cc1ccc(N(CCc2ccc(Cl)cc2)C(=O)C(N)c2ccccc2)cc1C (centres unmarked) [Example 93, 2-Amino-N-[2-(4-chloro-phenyl)-ethyl]-N-(3,4-dimethyl-phenyl)-2-phenyl-acetamide]
22 | 0.0828 | Cc1ccc(N(CCc2ccc(C(F)(F)F)cc2)C(=O)C(N)c2ccccc2)cc1 (centres unmarked) [Example 69, 2-Amino-2-phenyl-N-p-tolyl-N-[2-(4-trifluoromethyl-phenyl)-ethyl]-acetamide]
23 | 0.016 | Cc1ccc(N(CCc2cc(C(F)(F)F)ccc2F)C(=O)[C@@H](N)c2ccccc2)cc1C [Example 193, (S)-2-Amino-N-(3,4-dimethyl-phenyl)-N-[2-(2-fluoro-5-trifluoromethyl-phenyl)-ethyl]-2-phenyl-acetamide; hydrochloride]
24 | 0.0834 | NC(C(=O)N(CCc1ccc(C(F)(F)F)cc1)c1cccc(C2(O)COC2)c1)c1ccccc1 (centres unmarked) [Example 95, 2-Amino-N-[3-(3-hydroxy-oxetan-3-yl)-phenyl]-2-phenyl-N-[2-(4-trifluoromethyl-phenyl)-ethyl]-acetamide]
25 | 0.0127 | CCOc1ccc(N(CCc2ccc(C(F)(F)F)cc2)C(=O)[C@@H](N)c2ccccc2)cc1OCC [Example 140, (S)-2-Amino-N-(3,4-diethoxy-phenyl)-2-phenyl-N-[2-(4-trifluoromethyl-phenyl)-ethyl]-acetamide]
26 | 0.0305 | CNC(C(=O)N(CCc1ccc(C(F)(F)F)cc1)c1ccc(OC)c(OC)c1)c1ccccc1 (centres unmarked) [Example 53, N-(3,4-Dimethoxy-phenyl)-2-methylamino-2-phenyl-N-[2-(4-trifluoromethyl-phenyl)-ethyl]-acetamide]
